Results published in patent US20230312587A1, “PTERIDINONE COMPOUNDS AND USES THEREOF” (Vertex Pharmaceutical Incorporated, priority 2018, published 2023).
pIC50: −log10 of the molar value.

Each molecule was assayed on β-catenin-TCF-mediated reporter transcription activity in Colo 205 cells (assay: Colo 205 reporter assay (TCF/LEF luciferase)). Conditions: Colo 205 TCF/LEF luciferase reporter, five hours after addition of compound; read-out: TCF reporter Colo205 IC50.
Assay type: cell-based
Outline: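 Luciferase signal from a TCF/LEF-driven reporter, stably integrated in Colo 205 colon cancer cells, was measured 5 h after compound addition.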

| pIC50 | SMILES |
| --- | --- |
| 6.00 to 6.52 | Cc1nc(NCc2cnn(Cc3ccc(C(F)(F)F)nc3)c2)nc2c1NC(=O)C1(CCOC1)N2C (stereo not shown) [Compound 662, 4′,8′-dimethyl-2′-(((1-((6-(trifluoromethyl)pyridin-3-yl)methyl)-1H-pyrazol-4-yl)methyl)amino)-4,5,5′,8′-tetrahydro-2H,6′H-spiro[furan-3,7′-pteridin]-6′-one] |

Same assay, conditions: Homo sapiens, 5 h; Colo 205 TCF/LEF luciferase reporter, five hours after addition of compound; read-out: TCF reporter Colo205 IC50

| SMILES | pIC50 |
| --- | --- |
| Cc1nc(N[C@H]2C[C@H](NC(=O)Oc3ccc(F)cc3)C2)nc2c1NC(=O)[C@H](C)N2C [Compound 465, 4-fluorophenyl (trans-3-(((S)-4,7,8-trimethyl-6-oxo-5,6,7,8-tetrahydropteridin-2-yl)amino)cyclobutyl)carbamate] | 6.00 to 6.52 |

Same assay, conditions: Homo sapiens, COLO 205, 5 h, Colo 205 TCF/LEF luciferase reporter, five hours after addition of compound; read-out: TCF reporter Colo205 IC50

| SMILES | pIC50 |
| --- | --- |
| COc1cc(Cn2cc(CNc3nc(C)c4c(n3)N(C)[C@@H](C)C(=O)N4)cn2)ccn1 [Compound 203, (7S)-2-(((1-((2-methoxypyridin-4-yl)methyl)-1H-pyrazol-4-yl)methyl)amino)-4,7,8-trimethyl-7,8-dihydropteridin-6(5H)-one] | > 6.52 |
| CC[C@H]1C(=O)Nc2c(C)nc(NCc3cnn(Cc4ccc(Cl)nc4)c3)nc2N1C [Compound 432, (7S)-2-(((1-((6-chloropyridin-3-yl)methyl)-1H-pyrazol-4-yl)methyl)amino)-7-ethyl-4,8-dimethyl-7,8-dihydropteridin-6(5H)-one] | > 6.52 |
| Cc1nc(NCc2cnn(C[C@@H](C)c3ccc(F)cc3)c2)nc2c1NC(=O)[C@H](C)N2C [Compound 95, (7S)-2-(((1-((S)-2-(4-fluorophenyl)propyl)-1H-pyrazol-4-yl)methyl)amino)-4,7,8-trimethyl-7,8-dihydropteridin-6(5H)-one] | > 6.52 |
| Cc1nc(N[C@H]2C[C@@H](COc3ccc(F)cc3)C2)nc2c1NC(=O)[C@H](C)N2C [Compound 261, (7S)-2-((cis-3-((4-fluorophenoxy)methyl)cyclobutyl)amino)-4,7,8-trimethyl-7,8-dihydropteridin-6(5H)-one] | > 6.52 |
| Cc1nc(N[C@H]2CC[C@H](N(C)c3ccc(C(F)(F)F)cc3)C2)nc2c1NC(=O)[C@H](C(C)C)N2C [Compound 503, (S)-7-isopropyl-4,8-dimethyl-2-(((1S,3S)-3-(methyl(4-(trifluoromethyl)phenyl)amino)cyclopentyl)amino)-7,8-dihydropteridin-6(5H)-one] | 5.30 to 6.00 |
| COc1ccc(Cn2ccc(CNc3nc(C)c4c(n3)N(C)[C@@H](C)C(=O)N4)n2)cc1OC [Compound 76, (7S)-2-(((1-(3,4-dimethoxybenzyl)-1H-pyrazol-3-yl)methyl)amino)-4,7,8-trimethyl-7,8-dihydropteridin-6(5H)-one] | ≤ 5.30 |
| Cc1nc(NCc2cnn(Cc3ccccc3C(F)(F)F)c2)nc2c1NC(=O)[C@H](C)N2C [Compound 68, (7S)-4,7,8-trimethyl-2-(((1-(2-(trifluoromethyl)benzyl)-1H-pyrazol-4-yl)methyl)amino)-7,8-dihydropteridin-6(5H)-one] | > 6.52 |
| Cc1nc(N[C@H]2C[C@@H](Sc3ccc(OC(F)(F)F)cc3)C2)nc2c1NC(=O)[C@H](C)N2C [Compound 336, (7S)-4,7,8-trimethyl-2-((cis-3-((4-(trifluoromethoxy)phenyl)thio)cyclobutyl)amino)-7,8-dihydropteridin-6(5H)-one] | 6.00 to 6.52 |
| Cc1nc(N[C@H]2C[C@H](Oc3cc(F)c(F)c(F)c3)C2)nc2c1N(CC(F)(F)F)C(=O)[C@H](C)N2C [Compound 313, (7S)-4,7,8-trimethyl-5-(2,2,2-trifluoroethyl)-2-((trans-3-(3,4,5-trifluorophenoxy)cyclobutyl)-amino)-7,8-dihydropteridin-6(5H)-one] | ≤ 5.30 |
| Cc1nc(N[C@H]2C[C@@H](Oc3ccc(F)cc3)C2)nc2c1NC(=O)[C@H](C)N2C [Compound 243, (7S)-2-((cis-3-(4-fluorophenoxy)cyclobutyl)amino)-4,7,8-trimethyl-7,8-dihydropteridin-6(5H)-one] | 5.30 to 6.00 |
| CCn1ccnc1Cn1cc(CNc2nc(C)c3c(n2)N(C)[C@@H](C)C(=O)N3)cn1 [Compound 191, (7S)-2-(((1-((1-ethyl-1H-imidazol-2-yl)methyl)-1H-pyrazol-4-yl)methyl)amino)-4,7,8-trimethyl-7,8-dihydropteridin-6(5H)-one] | 5.30 to 6.00 |
| Cc1nc(NCc2cnn(CCc3ccc(F)cc3F)c2)nc2c1NC(=O)[C@H](C)N2C [Compound 106, (7S)-2-(((1-(2,4-difluorophenethyl)-1H-pyrazol-4-yl)methyl)amino)-4,7,8-trimethyl-7,8-dihydropteridin-6(5H)-one] | > 6.52 |
| Cc1nc(NCc2cc(C)n(-c3ccc(C(F)(F)F)cc3)c2C)nc2c1NC(=O)[C@H](C(C)C)N2C [Compound 453, (S)-2-(((2,5-dimethyl-1-(4-(trifluoromethyl)phenyl)-1H-pyrrol-3-yl)methyl)amino)-7-isopropyl-4,8-dimethyl-7,8-dihydropteridin-6(5H)-one] | > 6.52 |
| C[C@H]1C(=O)Nc2cnc(NCc3cnn(Cc4ccc(C(F)(F)F)cc4)c3)nc2N1C [Compound 147, (7S)-7,8-dimethyl-2-(((1-(4-(trifluoromethyl)benzyl)-1H-pyrazol-4-yl)methyl)amino)-7,8-dihydropteridin-6(5H)-one] | > 6.52 |
| Cc1nc(N[C@@H]2CCN(Cc3ccccc3)C2)nc2c1NC(=O)[C@H](C)N2C [Compound 372, (7S)-2-(((R)-1-benzylpyrrolidin-3-yl)amino)-4,7,8-trimethyl-7,8-dihydropteridin-6(5H)-one] | ≤ 5.30 |
| Cc1nc(NCc2cnn(Cc3ccc(Cl)nc3)c2)nc2c1NC(=O)[C@H](C(C)(C)C)N2C [Compound 438, (7S)-7-(tert-butyl)-2-(((1-((6-chloropyridin-3-yl)methyl)-1H-pyrazol-4-yl)methyl)amino)-4,8-dimethyl-7,8-dihydropteridin-6(5H)-one] | > 6.52 |
| Cc1nc(NCc2cnn(C3CCN(c4ccc(F)cc4)CC3)c2)nc2c1NC(=O)[C@H](C)N2C [Compound 130, (7S)-2-(((1-(1-(4-fluorophenyl)piperidin-4-yl)-1H-pyrazol-4-yl)methyl)amino)-4,7,8-trimethyl-7,8-dihydropteridin-6(5H)-one] | ≤ 5.30 |

Second part, the molecule after the results:

| pIC50 | SMILES |
| --- | --- |
| 6.00 to 6.52 | CC[C@H]1C(=O)Nc2c(C)nc(N[C@@H]3CC[C@H](Nc4cnc(C(F)(F)F)cn4)C3)nc2N1C [Compound 738, (S)-7-ethyl-4,8-dimethyl-2-(((1R,3S)-3-((5-(trifluoromethyl)pyrazin-2-yl)amino)cyclopentyl)amino)-7,8-dihydropteridin-6(5H)-one] |
| 6.00 to 6.52 | Cc1nc(N[C@H]2C[C@@H](Nc3nccc(C(F)(F)F)n3)C2)nc2c1NC(=O)[C@H](C(C)C)N2C [Compound 527, (S)-7-isopropyl-4,8-dimethyl-2-((cis-3-((4-(trifluoromethyl)pyrimidin-2-yl)amino)cyclobutyl)amino)-7,8-dihydropteridin-6(5H)-one] |
| > 6.52 | Cc1nc(N[C@H]2C[C@@H](Cn3ccc(C(F)(F)F)n3)C2)nc2c1NC(=O)[C@H](C(C)C)N2C [Compound 690, (S)-7-isopropyl-4,8-dimethyl-2-((cis-3-((3-(trifluoromethyl)-1H-pyrazol-1-yl)methyl)cyclobutyl)amino)-7,8-dihydropteridin-6(5H)-one] |
| 5.30 to 6.00 | Cc1nc(NC2CN(C(=O)c3cc(C(C)C)on3)C2)nc2c1NC(=O)[C@H](C(C)C)N2C [Compound 619, (S)-7-isopropyl-2-((1-(5-isopropylisoxazole-3-carbonyl)azetidin-3-yl)amino)-4,8-dimethyl-7,8-dihydropteridin-6(5H)-one] |
| > 6.52 | Cc1nc(NCc2cnn(Cc3ccc(C(F)(F)F)nc3)c2)nc2c1NC(=O)[C@H](C1CCC1)N2C [Compound 567, (7S)-7-cyclobutyl-4,8-dimethyl-2-(((1-((6-(trifluoromethyl)pyridin-3-yl)methyl)-1H-pyrazol-4-yl)methyl)amino)-7,8-dihydropteridin-6(5H)-one] |
| > 6.52 | COCC1(C)C(=O)Nc2c(C)nc(N[C@H]3C[C@H](Oc4cc(F)c(F)c(F)c4)C3)nc2N1C (relative stereo) [Compound 719, 7-(methoxymethyl)-4,7,8-trimethyl-2-((trans-3-(3,4,5-trifluorophenoxy)cyclobutyl)amino)-7,8-dihydropteridin-6(5H)-one] |
| > 6.52 | Cc1nc(N[C@H]2C[C@@H](COc3ccc(F)nc3)C2)nc2c1NC(=O)[C@H](C(C)C)N2C [Compound 574, (S)-2-((cis-3-(((6-fluoropyridin-3-yl)oxy)methyl)cyclobutyl)amino)-7-isopropyl-4,8-dimethyl-7,8-dihydropteridin-6(5H)-one] |
| ≤ 5.30 | Cc1nc(NC2CN(C(=O)c3cnccn3)C2)nc2c1NC(=O)[C@H](C(C)C)N2C [Compound 631, (S)-7-isopropyl-4,8-dimethyl-2-((1-(pyrazine-2-carbonyl)azetidin-3-yl)amino)-7,8-dihydropteridin-6(5H)-one] |
| 6.00 to 6.52 | Cc1nc(N[C@@H]2CCN(C(=O)c3cc(F)c(F)c(F)c3)C2)nc2c1NC(=O)[C@H](C(C)C)N2C [Compound I-541] |
| ≤ 5.30 | Cc1nc(N[C@H]2CCc3c2cnn3Cc2ccc(C(F)(F)F)nc2)nc2c1NC(=O)[C@H](C)N2C [Compound 624, (7S)-4,7,8-trimethyl-2-(((S)-1-((6-(trifluoromethyl)pyridin-3-yl)methyl)-1,4,5,6-tetrahydrocyclopenta[c]pyrazol-4-yl)amino)-7,8-dihydropteridin-6(5H)-one] |

Same assay, conditions: Homo sapiens, COLO 205, 5 h, R-isomer at C2 (corresponding to C2 S-isomer); Colo 205 TCF/LEF luciferase reporter, 5 h; read-out: TCF reporter Colo205 IC50

| pIC50 | SMILES |
| --- | --- |
| ≤ 5.30 | CC[C@@H]1C(=O)Nc2cnc(NCc3cnn(Cc4ccc(C(F)(F)F)nc4)c3)nc2N1C(C)C [Compound I-1646] |
| 6.00 to 6.52 | C[C@@H]1C(=O)Nc2cnc(NCc3cnn(Cc4cc(F)c(F)c(F)c4)c3)nc2N1C [Compound I-896] |
